Laboratory results as given in patent US10463747B2, “Method of developing a vaccine using peptide-poly IC complexes” (H. Lee Moffitt Cancer Center and Research Institute, Inc., priority 2011, dated 2019).
Where no end group is shown, it is not given here.

Columns and labels:
[1] = tested on: CD8 T cell responses of peptide epitope Trp1455/9M (TAPDNLGYM); experiment: Tetramer analysis of CD8 T cell responses after i.v. prime-boost vaccination with modified Trp1 peptide mixed with Poly-IC; type: in vivo, mice; details: for immunogenicity of peptide epitope (CD8 T cell response, tetramer analysis): i.v. prime-boost 2 weeks apart, blood 7 days after boost; for immunogenicity of peptide epitope compared with hepta-arginine (R)7 tail: three-arginine tail, FIG. 2
Procedure: CD8 T cell responses of peptide epitope Trp1455/9M (TAPDNLGYM) (SEQ ID NO:2) containing 3 types of tails with charged amino acids (R, K or E) and a short linker (MFV) (SEQ ID NO:3) were measured by tetramer analysis after i.v. prime-boost (2 weeks apart) vaccination using 120 μg peptide mixed with 50 μg Poly-IC. These sequences correspond to (R)7-MFV-TAPDNLGYM (SEQ ID NO:4); (K)7-MFV-TAPDNLGYM (SEQ ID NO:5); and (E)7-MFV-TAPDNLGYM (SEQ ID NO:6) respectively. Immune responses in 3 individual mice measured 7 days after the boost in blood samples. Numbers below the rectangular gates correspond to the % tetramer positive (antigen-specific) cells of the total CD8 T cell population.
The sequence for the three-arginine tail is (R)3-MFVTAPDNLGYM (SEQ ID NO:7).
CD8 T cell responses of peptide epitope Trp1455/9M (TAPDNLGYM) (SEQ ID NO:2) containing 2 types of hydrophobic tails (LMFVMFV-TAPDNLGYM (SEQ ID NO:10) and (Pam)2KMFV-TAPDNLGYM (SEQ ID NO:11)) at the amino terminus end were measured by tetramer analysis after i.v. prime-boost (2 weeks apart) vaccination using peptide mixed with 50 μg Poly-IC. Immune responses in 3 individual mice measured 7 days after the boost in blood samples. Numbers below the rectangular gates correspond to the % tetramer positive (antigen-specific) cells of the total CD8 T cell population.
(§1) Comparison of CD8 T cell responses of peptide epitope (pam)2Trp455/9M [(Pam)2KMFV-TAPDNLGYM] (SEQ ID NO:11) injected together with 50 μg Poly-IC (top panels) or 3.5 hours after the Poly-IC (bottom panels). Immune response in 3 individual mice measured 7 days after an identical boost (12 days apart) in blood samples. Numbers below the rectangular gates correspond to the % tetramer positive (antigen-specific) cells of the total CD8 T cell population.

[2] = tested on: antigen-specific CD8 T lymphocytes; experiment: Immunogenicity of modified peptides with immune adjuvants (general observations, adjuvant type and timing); details: in vivo
Procedure: Arginine-containing peptides and the hydrophobic peptides are highly immunogenic when administered together with Poly-IC because they are able to form complexes. This is supported by the observations that if the Poly-IC is injected intravenously (i.v) 3.5 to 5 hr before the peptide (also i.v.), then the immune responses are dramatically lower as compared to circumstances when both peptide and Poly-IC are administered together (FIGS. 7 and 8).
The inventors are developing assays that measure the formation of these complexes. The data has been observed with Poly-IC, which is both a TLR3 agonist and ligand for RIG-1 like receptors, or cytoplasmic helicases.
There are examples of antigens (proteins or peptides) that are conjugated to antibodies specific for cell surface molecules expressed on antigen-presenting cells in order to specifically target the antigens to these cells to generate immune responses. […] This is likely due to the antibodies, while targeting the antigen to the appropriate antigen-presenting cell, are not sufficiently stimulatory to activate the cell to become optimal to stimulate the T cell responses. In addition, the ODN-CpG-peptide complexes are not captured as efficiently due to their relatively small size, as compared to the peptide-poly-IC complexes, by the scavenger receptors on the antigen-presenting cells. […]

[3] = tested on: CD8 T cell responses of peptide epitope HPV16-E749 (RAHYNIVTF); experiment: Tetramer analysis of CD8 T cell responses after i.v. prime-boost vaccination with HPV16-E7 peptide mixed with Poly-IC; type: in vivo, mice; details: for immunogenicity of peptide epitope (CD8 T cell response, tetramer analysis): i.v. prime-boost 2 weeks apart, 30 μg peptide mixed with 50 μg Poly-IC, blood 7 days after boost
Procedure: CD8 T cell responses of peptide epitope HPV16-E749 (RAHYNIVTF) (SEQ ID NO:8) and HPV16-E749/1A (AAHYNIVTF) (SEQ ID NO:9) measured by tetramer analysis after i.v. prime-boost (2 weeks apart) vaccination using 30 μg peptide mixed with 50 μg Poly-IC. Immune responses in 3 individual mice measured 7 days after the boost in blood samples. Numbers below the oval gates correspond to the % tetramer positive (antigen-specific) cells of the total CD8 T cell population.
as §1, with “epitope HPV16-E749 (RAHYNIVTF)” for “epitope (pam)2Trp455/9M [(Pam)2KMFV-TAPDNLGYM]”, “ID NO:8)” for “ID NO:11)”, “or 5” for “or 3.5”, “Immune responses” for “Immune response”, “the oval” for “the rectangular”

MHC molecule = target: T1, MHC molecule (Mus musculus, UniProt P01899); details: arginine to alanine substitution at position 1; cited from earlier work
T1 sequence (P01899 25-362): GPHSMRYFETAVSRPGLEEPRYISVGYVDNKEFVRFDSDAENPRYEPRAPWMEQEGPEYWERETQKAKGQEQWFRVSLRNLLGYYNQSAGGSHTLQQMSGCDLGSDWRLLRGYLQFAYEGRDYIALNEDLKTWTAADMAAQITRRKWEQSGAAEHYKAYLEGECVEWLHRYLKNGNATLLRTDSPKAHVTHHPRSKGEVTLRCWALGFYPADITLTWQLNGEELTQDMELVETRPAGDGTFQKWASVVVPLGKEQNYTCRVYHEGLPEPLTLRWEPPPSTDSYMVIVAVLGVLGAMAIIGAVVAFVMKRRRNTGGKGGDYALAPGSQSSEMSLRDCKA
T1 sequence (P01887 21-119 partner): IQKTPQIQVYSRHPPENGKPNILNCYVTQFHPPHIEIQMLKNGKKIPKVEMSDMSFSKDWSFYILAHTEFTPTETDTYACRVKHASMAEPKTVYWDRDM

[4] = hydrophobic tail at amino terminus, peptide mixed with 50 μg Poly-IC
[5] = 50 μg Poly-IC, 7 days after identical boost (12 days apart), blood

(R)7-MFV-TAPDNLGYM (RRRRRRRMFVTAPDNLGYM; 7 arginine tail epitope Trp1 455/9m)
immunogenicity of peptide epitope (CD8 T cell response, tetramer analysis) ([1]; charged amino acid tail + MFV linker, 120 μg peptide mixed with 50 μg Poly-IC): increases the immunogenicity | immunogenicity of peptide epitope (CD8 T cell response, tetramer analysis) ([1]; charged amino acid tail + MFV linker, 120 μg peptide mixed with 50 μg Poly-IC, listed as R7): function as good immunogens

polyinosinic:polycytidylic acid [poly-IC]
effect on immune responses of injection prior to the injection of peptide-poly-IC complexes [2]: inhibition of the immune responses | generation of secondary (booster) immune responses by adjuvant [2]: very potent

AAHYNIVTF (peptide epitope hpv16-e7 49/1a) [HPV16-E749/1A]
immunogenicity of peptide epitope (CD8 T cell response, tetramer analysis) [3]: reduces its immunogenicity | immunogenicity of peptide epitope (CD8 T cell response, tetramer analysis) ([3]; listed as AAHYNIVTF): reduced dramatically the immunogenicity | capacity of the peptide to bind to the MHC molecule and be recognized by T cells (MHC molecule): does not interfere with the capacity of the peptide to bind to the MHC molecule and be recognized by T cells

LMFVMFV-TAPDNLGYM (LMFVMFVTAPDNLGYM; peptide epitope Trp1 455/9m with hydrophobic tail)
immunogenicity of peptide epitope (CD8 T cell response, tetramer analysis) [1, 4]: increase the immunogenicity

(R)3-MFVTAPDNLGYM (RRRMFVTAPDNLGYM; 3 arginine tail epitope Trp1 455/9m)
immunogenicity of peptide epitope compared with hepta-arginine (R)7 tail [1]: increases immunogenicity of a peptide epitope similar to the results obtained from a hepta-arginine (R)7 tail | immunogenicity of peptide epitope compared with hepta-arginine (R)7 tail ([1]; listed as (R)3): function as well as peptides with seven arginines (R)7

(Pam)2KMFV-TAPDNLGYM (KMFVTAPDNLGYM; not fully specified (residue 1); printed as (Pam)2KMFV-TAPDNLGYM)
immune response, peptide injected together with Poly-IC versus 3.5 hours after the Poly-IC [1, 5]: stronger immune responses | immunogenicity of peptide epitope (CD8 T cell response, tetramer analysis) [1, 4]: increase the immunogenicity

RAHYNIVTF (peptide epitope hpv16-e7 49) [HPV16-E749]
immune response, peptide injected together with Poly-IC versus 5 hours after the Poly-IC [3, 5]: stronger immune responses | immunogenicity of peptide epitope (CD8 T cell response, tetramer analysis) [3]: more immunogenic than AAHYNIVTF
